Laboratory results reported in patent US12077503B2, “Substituted cyclic amides and their use as herbicides” (FMC CORPORATION, priority 2015, dated 2024).
Like-named read-outs stand apart in the source and are kept apart here.

Columns and labels:
Type in all cases: in vivo
[1] = test system: rice (Oryra sativa); test: Test B flooded paddy test; details: Oryza sativa, 250 g ai/ha, Flood, read-out: Rice plant response rating
How it was run: (§1)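 Greenhouse paddy pots with 2-leaf stage plants received compound by direct addition to floodwater 3 cm deep, kept at that level. Scored visually at 13–15 d versus controls (0 no effect; 100 complete control).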

[2] = test system: sedge, umbrella (small-flower umbrella sedge, Cyperus difformis); test: Test B flooded paddy test; details: Cyperus difformis, 250 g ai/ha, Flood, read-out: Sedge, Umbrella plant response rating
How it was run: as §1

[3] = test system: ducksalad (Heteranthera limosa); test: Test B flooded paddy test; details: Heteranthera limosa, 250 g ai/ha, Flood, read-out: Ducksalad plant response rating
How it was run: as §1

[4] = test system: barnyardgrass (Echinochloa crus-galli); test: Test B flooded paddy test; details: Echinochloa crus-galli, 250 g ai/ha, Flood, read-out: Barnyardgrass plant response rating
How it was run: as §1

[5] = test system: giant foxtail (Setaria faberii); test: Test A postemergence; details: Setaria faberi, post-emergence, 240 h, postemergence; for pest or weed control at 125 g/ha: 125 g ai/ha; for pest or weed control at 500 g/ha: 500 g ai/ha, 0 to 100 scale, 0 is no effect, 100 is complete control
How it was run: (§2)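 Greenhouse, ~10 d after spray; visual injury vs untreated controls, 0 = no effect, 100 = complete control. Preemergence: directed soil spray over planted seeds. Postemergence: plants 2–10 cm, 1–2 leaf stage. Loam/sand blend. Compound in non-phytotoxic solvent with surfactant.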

[6] = test system: Kochia (Kochia scoparia); test: Test A postemergence; details: Bassia scoparia, post-emergence, 240 h, postemergence; for pest or weed control at 125 g/ha: 125 g ai/ha; for pest or weed control at 500 g/ha: 500 g ai/ha, 0 to 100 scale, 0 is no effect, 100 is complete control
How it was run: as §2

[7] = test system: barnyardgrass (Echinochloa crus-galli); test: Test A postemergence; details: Echinochloa crus-galli, post-emergence, 240 h, postemergence; for pest or weed control at 125 g/ha: 125 g ai/ha; for pest or weed control at 500 g/ha: 500 g ai/ha, 0 to 100 scale, 0 is no effect, 100 is complete control
How it was run: as §2

[8] = test system: ragweed (common ragweed, Ambrosia elatior); test: Test A postemergence; details: Ambrosia artemisiifolia, post-emergence, 240 h, postemergence; for pest or weed control at 125 g/ha: 125 g ai/ha; for pest or weed control at 500 g/ha: 500 g ai/ha, 0 to 100 scale, 0 is no effect, 100 is complete control, read-out: Ragweed plant response rating
How it was run: as §2

[9] = test system: ryegrass, Italian (Italian ryegrass, Lolium multiflorum); test: Test A preemergence; details: Lolium multiflorum, pre-emergence, 240 h; for pest or weed control at 125 g/ha: 125 g ai/ha; for pest or weed control at 500 g/ha: 500 g ai/ha
How it was run: as §2

[10] = test system: giant foxtail (Setaria faberii); test: Test A preemergence; details: Setaria faberi, pre-emergence, 240 h; for pest or weed control at 125 g/ha: 125 g ai/ha; for pest or weed control at 500 g/ha: 500 g ai/ha
How it was run: as §2

[11] = test system: pigweed (Amaranthus retroflexus); test: Test A preemergence; details: Amaranthus retroflexus, pre-emergence, 240 h; for pest or weed control at 125 g/ha: 125 g ai/ha; for pest or weed control at 500 g/ha: 500 g ai/ha
[12] = test system: Kochia (Kochia scoparia); test: Test A preemergence; details: Bassia scoparia, pre-emergence, 240 h; for pest or weed control at 125 g/ha: 125 g ai/ha; for pest or weed control at 500 g/ha: 500 g ai/ha
How it was run: as §2

[13] = test system: barnyardgrass (Echinochloa crus-galli); test: Test A preemergence; details: Echinochloa crus-galli, pre-emergence, 240 h; for pest or weed control at 125 g/ha: 125 g ai/ha; for pest or weed control at 500 g/ha: 500 g ai/ha
How it was run: as §2

[14] = test system: ragweed (common ragweed, Ambrosia elatior); test: Test A preemergence; details: Ambrosia artemisiifolia, pre-emergence, 240 h; for pest or weed control at 125 g/ha: 125 g ai/ha; for pest or weed control at 500 g/ha: 500 g ai/ha
How it was run: as §2

[15] = 0 to 100 scale where 0 is no effect and 100 is complete control
[16] = visual injury on 0 to 100 scale (0 no effect, 100 complete control), approx. 10 d, read-out: Foxtail, Giant plant response rating
[17] = read-out: Foxtail, Giant plant response rating
[18] = visual injury on 0 to 100 scale (0 no effect, 100 complete control), approx. 10 d, read-out: Kochia plant response rating
[19] = read-out: Kochia plant response rating
[20] = visual injury on 0 to 100 scale (0 no effect, 100 complete control), approx. 10 d, read-out: Barnyardgrass plant response rating
[21] = read-out: Barnyardgrass plant response rating
[22] = visual injury vs untreated controls after approx. 10 d, 0 = no effect, 100 = complete control, read-out: Ragweed plant response rating (0 to 100 scale)
[23] = preemergence, 0 to 100 scale where 0 is no effect and 100 is complete control, approx. 10 d, read-out: Ryegrass, Italian plant response rating
[24] = preemergence, 0 to 100 scale where 0 is no effect and 100 is complete control, read-out: Ryegrass, Italian plant response rating
[25] = preemergence, 0 to 100 scale where 0 is no effect and 100 is complete control, approx. 10 d, read-out: Foxtail, Giant plant response rating
[26] = preemergence, 0 to 100 scale where 0 is no effect and 100 is complete control, read-out: Foxtail, Giant plant response rating
[27] = preemergence, 0 to 100 scale where 0 is no effect and 100 is complete control, approx. 10 d, read-out: Pigweed plant response rating
[28] = preemergence, 0 to 100 scale where 0 is no effect and 100 is complete control, read-out: Pigweed plant response rating
[29] = preemergence, 0 to 100 scale where 0 is no effect and 100 is complete control, approx. 10 d, read-out: Kochia plant response rating
[30] = preemergence, 0 to 100 scale where 0 is no effect and 100 is complete control, read-out: Kochia plant response rating
[31] = preemergence, 0 to 100 scale where 0 is no effect and 100 is complete control, approx. 10 d, read-out: Barnyardgrass plant response rating
[32] = preemergence, 0 to 100 scale where 0 is no effect and 100 is complete control, read-out: Barnyardgrass plant response rating
[33] = preemergence, 0 to 100 scale where 0 is no effect and 100 is complete control, approx. 10 d, read-out: Ragweed plant response rating
[34] = preemergence, 0 to 100 scale where 0 is no effect and 100 is complete control, read-out: Ragweed plant response rating
[35] = scale of 0 to 100 where 0 is no effect and 100 is complete control

CN1C[C@H](c2ccc(C(F)(F)F)cc2)[C@](F)(C(=O)Nc2cccc(F)c2F)C1=O (racemic) [Compound 1152] showed a pest or weed control at 250 g/ha [1, 15] of 0%, a pest or weed control at 250 g/ha [2, 15] of 0% and a pest or weed control at 250 g/ha [3, 15] of 0%. The pest or weed control at 250 g/ha [4, 15] was 0%, the pest or weed control at 125 g/ha [5, 16] was 20% and the pest or weed control at 500 g/ha [5, 17] was 40%. It also gave a pest or weed control at 125 g/ha [6, 18] of 0%, a pest or weed control at 500 g/ha [6, 19] of 0% and a pest or weed control at 125 g/ha [7, 20] of 0%. The pest or weed control at 500 g/ha [7, 21] was 0%, the pest or weed control at 125 g/ha [8, 22] was 0% and the pest or weed control at 500 g/ha [8] was 0%. The pest or weed control at 125 g/ha [9, 23] was 0%, the pest or weed control at 500 g/ha [9, 24] was 20% and the pest or weed control at 125 g/ha [10, 25] was 70%. The pest or weed control at 500 g/ha [10, 26] was 90%, the pest or weed control at 125 g/ha [11, 27] was 60% and the pest or weed control at 500 g/ha [11, 28] was 80%. For the same compound, the pest or weed control at 125 g/ha [12, 29] was 0%, the pest or weed control at 500 g/ha [12, 30] was 0% and the pest or weed control at 125 g/ha [13, 31] was 20%. The pest or weed control at 500 g/ha [13, 32] was 90%, the pest or weed control at 125 g/ha [14, 33] was 0% and the pest or weed control at 500 g/ha [14, 34] was 0%.
CN1C[C@H](c2ccc(F)c(F)c2)[C@@H](C(=S)Nc2ccccc2F)C1=O (racemic) [Compound 1153] was tested, and the pest or weed control at 250 g/ha [1, 15] was 0%, the pest or weed control at 250 g/ha [2, 15] was 0% and the pest or weed control at 250 g/ha [3, 15] was 70%. The pest or weed control at 250 g/ha [4, 15] was 30%, the pest or weed control at 125 g/ha [5, 16] was 60% and the pest or weed control at 500 g/ha [5, 17] was 90%. It also gave a pest or weed control at 125 g/ha [6, 18] of 0%, a pest or weed control at 500 g/ha [6, 19] of 0% and a pest or weed control at 125 g/ha [7, 20] of 90%. It also gave a pest or weed control at 500 g/ha [7, 21] of 90%, a pest or weed control at 125 g/ha [8, 22] of 0% and a pest or weed control at 500 g/ha [8] of 0%. For the same compound, the pest or weed control at 125 g/ha [9, 23] was 30%, the pest or weed control at 500 g/ha [9, 24] was 50% and the pest or weed control at 125 g/ha [10, 25] was 90%. The pest or weed control at 500 g/ha [10, 26] was 90%, the pest or weed control at 125 g/ha [11, 27] was 0% and the pest or weed control at 500 g/ha [11, 28] was 0%. The pest or weed control at 125 g/ha [12, 29] was 60%, the pest or weed control at 500 g/ha [12, 30] was 70% and the pest or weed control at 125 g/ha [13, 31] was 80%. For the same compound, the pest or weed control at 500 g/ha [13, 32] was 90%, the pest or weed control at 125 g/ha [14, 33] was 0% and the pest or weed control at 500 g/ha [14, 34] was 0%.
CN1C[C@H](c2cccc(C3CC3)c2)[C@@H](C(=O)Nc2cccc(F)c2F)C1=O [Compound 816] showed a pest or weed control at 250 g/ha [1, 35] of 30%, a pest or weed control at 250 g/ha [2, 35] of 0% and a pest or weed control at 250 g/ha [3, 35] of 75%. For the same compound, the pest or weed control at 250 g/ha [4, 35] was 55%, the pest or weed control at 125 g/ha ([5]; visual injury rating after approximately 10 d, read-out: Foxtail, Giant plant response rating (0 to 100 scale, 0 no effect, 100 complete control)) was 90% and the pest or weed control at 125 g/ha ([6]; visual injury rating after approximately 10 d, read-out: Kochia plant response rating (0 to 100 scale, 0 no effect, 100 complete control)) was 30%. For the same compound, the pest or weed control at 125 g/ha ([7]; visual injury rating after approximately 10 d, read-out: Barnyardgrass plant response rating (0 to 100 scale, 0 no effect, 100 complete control)) was 90%, the pest or weed control at 125 g/ha ([8]; visual injury rating after approximately 10 d, read-out: Ragweed plant response rating (0 to 100 scale, 0 no effect, 100 complete control)) was 0% and the pest or weed control at 125 g/ha [9, 24] was 70%. The pest or weed control at 500 g/ha ([9]; Preemergence, visual injury vs untreated controls after approximately 10 d, read-out: Ryegrass, Italian plant response rating (0 to 100 scale where 0 is no effect and 100 is complete control)) was 80%, the pest or weed control at 125 g/ha [10, 26] was 90% and the pest or weed control at 500 g/ha ([10]; Preemergence, visual injury vs untreated controls after approximately 10 d, read-out: Foxtail, Giant plant response rating (0 to 100 scale where 0 is no effect and 100 is complete control)) was 90%. For the same compound, the pest or weed control at 125 g/ha [11, 28] was 0%, the pest or weed control at 500 g/ha ([11]; Preemergence, visual injury vs untreated controls after approximately 10 d, read-out: Pigweed plant response rating (0 to 100 scale where 0 is no effect and 100 is complete control)) was 60% and the pest or weed control at 125 g/ha [12, 30] was 60%. It also gave a pest or weed control at 500 g/ha ([12]; Preemergence, visual injury vs untreated controls after approximately 10 d, read-out: Kochia plant response rating (0 to 100 scale where 0 is no effect and 100 is complete control)) of 80%, a pest or weed control at 125 g/ha [13, 32] of 90% and a pest or weed control at 500 g/ha ([13]; Preemergence, visual injury vs untreated controls after approximately 10 d, read-out: Barnyardgrass plant response rating (0 to 100 scale where 0 is no effect and 100 is complete control)) of 90%. For the same compound, the pest or weed control at 125 g/ha [14, 34] was 20% and the pest or weed control at 500 g/ha ([14]; Preemergence, visual injury vs untreated controls after approximately 10 d, read-out: Ragweed plant response rating (0 to 100 scale where 0 is no effect and 100 is complete control)) was 50%.
